Active and inactive are the calls of the source. No cut-off for these calls is given here.
Test system: Phytophthora capsici
Experiment: Antifungal activity against Phytophthora capsici assessed as fungal growth inhibition at 0.3 to 0.5 mM after 0.5 to 4.5 days
Format: functional, organism-based

Structure (SMILES)	growth inhibition (GI)
CCCCCCC(O)C(O)/C=C/C(O)CCCCCCC(=O)O (configuration not stated)	Active
CCCCCCC(O)C(O)/C=C/C(O)CCCCCCC(=O)OCC(O)CO (configuration not stated)	Active

Source: ChEMBL document CHEMBL3046302, “Antifungal constituents from the seeds of Allium fistulosum L” (J Agric Food Chem, 2002)
